Assay results taken from ChEMBL document CHEMBL5727106, “Imidazol- or 1,2,4-triazol-derivatives and their use” (2019).

Experiments:
[1] = target: T1, G-protein coupled bile acid receptor 1 (Mus musculus, UniProt Q80SS6); assay: (§1) TGR5/CRE Luciferase Assay: In the following tables TGR5 activation by compounds and subsequent increase in intracellular cAMP were evaluated using a luciferase reporter gene assay. Human embryonic kidney (HEK) 293 cells were transiently co-transfected with pCMV tag4b-TGR5 h (to follow hTGR5 activation) or pCMV AC6-TGR5m (to follow mTGR5 activation) expression plasmids and the pCRE TA-Luciferase reporter plasmid using the JET PEI reagent (Polyplus transfection). Transfected cells were seeded in 96-well plates and incubated overnight with the test compounds at increasing concentrations tested in duplicate. Lithocolic acid (LCA) at 10 μM was used as a positive reference compound. The cAMP-dependent luciferase expression was followed using the BrightGlo reagent according to the manufacturer (Promega) instructions. Luminescence was read with a Mithras plate reader (Berthold). Data were expressed as percentage of the 10 μM LCA value and EC50 values were calculated using XL fit 5 software or GraphPad Prism 5. Concentration-response curves were fitted by a nonlinear regression analysis to a 4 parameter logistic equation.; assay type: cell-based
T1 sequence (Q80SS6 whole entry): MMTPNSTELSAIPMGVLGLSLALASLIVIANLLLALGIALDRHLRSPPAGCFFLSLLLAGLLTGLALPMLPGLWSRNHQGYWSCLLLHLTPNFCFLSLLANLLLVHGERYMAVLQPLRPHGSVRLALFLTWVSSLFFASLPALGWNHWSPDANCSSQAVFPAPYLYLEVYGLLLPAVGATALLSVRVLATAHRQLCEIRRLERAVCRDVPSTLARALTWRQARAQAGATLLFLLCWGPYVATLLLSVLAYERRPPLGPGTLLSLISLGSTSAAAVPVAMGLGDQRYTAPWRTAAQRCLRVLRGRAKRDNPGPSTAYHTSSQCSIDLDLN

[2] = target: T2, G-protein coupled bile acid receptor 1 (Homo sapiens, UniProt Q8TDU6); assay: as §1, with “Data were expressed as percentage of the 10 μM LCA value and EC50 values were calculated using XL fit 5 software or GraphPad Prism 5.” left out; assay type: cell-based
T2 sequence (Q8TDU6 whole entry): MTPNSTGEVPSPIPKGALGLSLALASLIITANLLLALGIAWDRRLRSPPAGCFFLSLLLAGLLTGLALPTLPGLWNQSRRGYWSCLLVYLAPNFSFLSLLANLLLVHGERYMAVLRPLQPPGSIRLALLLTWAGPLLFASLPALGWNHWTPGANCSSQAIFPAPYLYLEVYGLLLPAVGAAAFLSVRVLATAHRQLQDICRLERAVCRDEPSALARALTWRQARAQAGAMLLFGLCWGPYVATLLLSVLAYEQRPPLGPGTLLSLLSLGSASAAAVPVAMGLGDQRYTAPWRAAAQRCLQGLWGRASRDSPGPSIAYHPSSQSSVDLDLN

Row | EC50 [1] [µM] | EC50 [2] [µM] | SMILES
1 | 0.018 | 0.16 | COCCOCCOCCOCCOCCOCCOCCOCCOCCOc1cc(F)c(CSc2ncc(N(C)c3ccc(OC)c(OC)c3)n2-c2ccc(F)cc2)c(F)c1
2 | 0.029 | 0.58 | COCCOCCOCCOCCOCCOCCOCCOCCOCCOCCOc1cc(F)c(CSc2ncc(N(C)c3ccc(OC)c(OC)c3)n2-c2ccc(F)cc2)c(F)c1
3 | 0.068 | 1.2 | COCCOCCOCCOCCOCCOCCOCCOCCOCCOCCOCCOCCOCCOCCOCCOCCOCCOCCOCCOCCOCCOCCOCCOCCOCCOCCOCCOCCOCCOCCOCCOCCOCCOCCOCCOCCOCCOc1cc(F)c(CSc2ncc(N(C)c3ccc(OC)c(OC)c3)n2-c2ccc(F)cc2)c(F)c1
4 | 0.026 | 0.33 | COCCOCCOCCOCCOCCOCCOCCOCCOCCOCCOCCOCCOCCOCCOCCOCCOc1cc(F)c(CSc2ncc(N(C)c3ccc(OC)c(OC)c3)n2-c2ccc(F)c(OC)c2)c(F)c1
